Measured values from US20260271931A1, “HERBICIDAL MIXTURES” (Bayer Aktiengesellschaft, priority 2023, published 2026).
Where two headings read alike, the source gives them in different places.

Tests used:
Type in all cases: in vivo
[1] = tested on: Eleusine indica (ELEIN); test: Post-emergence action against weeds, greenhouse pot test, visual rating: Eleusine indica; conditions: for pest or weed control at 0.4 g/ha: 0.4 g a.i./ha
Protocol: (§1) When the observed efficacies already exceed the formal sum total of the values of the tests with individual applications, they also exceed the expected value according to Colby, which is calculated using the formula below and is likewise regarded as an indication of synergism (cf. S. R. Colby; in Weeds 15 (1967) pp. 20 to 22):
(§2) where: • A=efficacy of the active ingredient (A) in % at an application rate of a [g a.i./ha]; • B=efficacy of the active ingredient (B) in % at an application rate of b [g a.i./ha]; • E^C=expected value of the effect of the combination (A)+(B) in % at the combined application rate a+b [g a.i./ha].
(§3) The observed values (E^A) from the experiments, given suitable low dosages, show an effect of the combinations exceeding the expected values according to Colby (E^C) (Δ).
(§4) Seeds of mono- and dicotyledonous weeds were placed in sandy loam in pots, covered with soil and grown in a greenhouse under good growth conditions (temperature, air humidity, water supply). Two to three weeks after sowing, the test plants were treated at the two- to four-leaf stage with the compositions of the invention. The compositions of the invention, formulated as spray powders or as emulsion concentrates, were sprayed onto the green parts of the plant in various dosages with an application rate equivalent to […] of water. After the test plants had been kept in the greenhouse under optimum growth conditions for 3 weeks, the activity of the preparations was rated visually in comparison to untreated controls.
(§5) 100% efficacy means complete control of the particular weed tested.
(§6) 0% efficacy means zero control of the particular weed tested.
(§7) Expected values according to Colby are reported under E.
(§8) The exceedance of the expected value E is given as Δ (=synergistic effect).
(§9) The rating period is reported in days after application (DAT).

[2] = tested on: Kochia scoparia (KCHSC); test: Post-emergence action against weeds, greenhouse pot test, visual rating: Kochia scoparia
[3] = tested on: Centaurea cyanus (CENCY); test: Post-emergence action against weeds, greenhouse pot test, visual rating: Centaurea cyanus; conditions: 240 h, read-out: Herbicidal effect [%] on CENCY 10 DAT
[4] = tested on: Sorghum halepense (SORHA); test: Post-emergence action against weeds, greenhouse pot test, visual rating: Sorghum halepense
Protocol: as §1, §2, §3, §4, §5, §6, §7, §8, §9

[5] = tested on: Bidens pilosa (BIDPI); test: Post-emergence action against weeds, greenhouse pot test, visual rating: Bidens pilosa
[6] = tested on: Centaurea cyanus (CENCY); test: Post-emergence action against weeds, greenhouse pot test, visual rating: Centaurea cyanus
Protocol: as §1, §2, §3, §4, §5, §6, §7, §8, §9

[7] = tested on: Pharbitis purpurea (PHBPU); test: Post-emergence action against weeds, greenhouse pot test, visual rating: Pharbitis purpurea
Protocol: as §1, §2, §3, §4, §5, §6, §7, §8, §9

[8] = tested on: Lolium rigidum (LOLRI); test: Post-emergence action against weeds, greenhouse pot test, visual rating: Lolium rigidum
[9] = tested on: Echinochloa crus-galli (ECHCG); test: Post-emergence action against weeds, greenhouse pot test, visual rating: Echinochloa crus-galli
[10] = tested on: Avena fatua (AVEFA); test: Post-emergence action against weeds, greenhouse pot test, visual rating: Avena fatua; conditions: 10 DAT
[11] = tested on: Brachiaria platyfylla (BRAPP); test: Post-emergence action against weeds, greenhouse pot test, visual rating: Brachiaria platyfylla; conditions: for pest or weed control at 3 g/ha: 3 g a.i./ha; for pest or weed control at 0.4 g/ha: 0.4 g a.i./ha
Protocol: as §1, §2, §3, §4, §5, §6, §7, §8, §9

[12] = Eleusine indica, post-emergence, 504 h, read-out: Herbicidal effect [%] on ELEIN 21 DAT
[13] = post-emergence, 240 h, read-out: Herbicidal effect [%] on BRAPP 10 DAT
[14] = post-emergence, 504 h, read-out: Herbicidal effect [%] on BRAPP 21 DAT

CCC(CC)Nc1c([N+](=O)[O-])cc(C)c(C)c1[N+](=O)[O-] [Pendimethalin, pendimethalin]
pest or weed control at 100 g/ha ([1]; Eleusine indica, post-emergence, 504 h, 100 g a.i./ha, read-out: Herbicidal effect [%] on ELEIN 21 DAT): 0%
pest or weed control at 100 g/ha ([2]; Bassia scoparia, post-emergence, 504 h, 100 g a.i./ha, read-out: Herbicidal effect [%] on KCHSC 21 DAT): 10%
pest or weed control at 100 g/ha ([3]; 100 g a.i./ha): 0%

CCc1cccc(C)c1N(C(=O)CCl)[C@@H](C)COC [S-Metolachlor, S-metolachlor]
Herbicidal effect [%] on SORHA 10 DAT ([4]; 50 g a.i./ha): 10%
Herbicidal effect [%] on SORHA 21 DAT ([4]; 50 g a.i./ha): 10%
Herbicidal effect [%] on BIDPI 21 DAT ([5]; 50 g a.i./ha): 20%
Herbicidal effect [%] on ELEIN 10 DAT ([1]; 50 g a.i./ha): 10%
Herbicidal effect [%] on ELEIN 21 DAT ([1]; 50 g a.i./ha): 10%
Herbicidal effect [%] on CENCY 10 DAT ([6]; 50 g a.i./ha): 0%
Herbicidal effect [%] on CENCY 21 DAT ([6]; 50 g a.i./ha): 10%
Herbicidal effect [%] on PHBPU 21 DAT ([7]; 50 g a.i./ha): 10%
Herbicidal effect [%] on KCHSC 21 DAT ([2]; 50 g a.i./ha): 10%
Herbicidal effect [%] on LOLRI 21 DAT ([8]; 50 g a.i./ha, 21 DAT): 0%
Herbicidal effect [%] on ECHCG 21 DAT ([9]; 50 g a.i./ha): 30%
Herbicidal effect [%] on AVEFA 10 DAT ([10]; 50 g a.i./ha): 10%
Herbicidal effect [%] on BRAPP 10 DAT ([11]; 50 g a.i./ha): 30%
Herbicidal effect [%] on BRAPP 21 DAT ([11]; 50 g a.i./ha): 30%

CS(=O)(=O)NC(=O)c1cc(Oc2ccc(C(F)(F)F)cc2Cl)ccc1[N+](=O)[O-] [Fomesafen, fomesafen]
Herbicidal effect [%] on BIDPI 10 DAT ([5]; 1.5 g a.i./ha): 30%
Herbicidal effect [%] on BIDPI 21 DAT ([5]; 1.5 g a.i./ha): 20%
pest or weed control at […] ([1]; Eleusine indica, post-emergence, 504 h, 1.5 g a.i./ha, read-out: Herbicidal effect [%] on ELEIN 21 DAT): 0%
Herbicidal effect [%] on CENCY 21 DAT ([6]; 1.5 g a.i./ha): 30%
Herbicidal effect [%] on KCHSC 10 DAT ([2]; 1.5 g a.i./ha): 10%
pest or weed control at […] ([2]; Bassia scoparia, post-emergence, 504 h, 1.5 g a.i./ha, read-out: Herbicidal effect [%] on KCHSC 21 DAT): 0%
pest or weed control at […] ([8]; Lolium rigidum, 504 h, 1.5 g a.i./ha, 21 DAT, read-out: Herbicidal effect [%] on LOLRI 21 DAT): 0%
pest or weed control at […] ([3]; 1.5 g a.i./ha): 20%
pest or weed control at […] ([11]; post-emergence, 504 h, 1.5 g a.i./ha, read-out: Herbicidal effect [%] on BRAPP 21 DAT): 0%

CCOC(=O)COc1cc(-c2nn(C)c(OC(F)F)c2Cl)c(F)cc1Cl [Pyraflufen-ethyl, pyraflufen-ethyl]
Herbicidal effect [%] on SORHA 21 DAT ([4]; 7.5 g a.i./ha): 10%
Herbicidal effect [%] on BIDPI 10 DAT ([5]; 7.5 g a.i./ha): 88%
Herbicidal effect [%] on BIDPI 21 DAT ([5]; 7.5 g a.i./ha): 80%
pest or weed control at […] [1, 12]: 0%
Herbicidal effect [%] on CENCY 21 DAT ([6]; 7.5 g a.i./ha): 88%
pest or weed control at […] [3]: 88%

N#Cc1cc(Br)c(O)c(Br)c1 [Bromoxynil, bromoxynil]
Herbicidal effect [%] on BIDPI 10 DAT ([5]; 80 g a.i./ha): 50%
pest or weed control at 80 g/ha ([1]; Eleusine indica, post-emergence, 240 h, 80 g a.i./ha, read-out: Herbicidal effect [%] on ELEIN 10 DAT): 0%
Herbicidal effect [%] on PHBPU 10 DAT ([7]; 80 g a.i./ha): 50%
pest or weed control at 80 g/ha ([10]; Avena fatua, 240 h, 80 g a.i./ha, read-out: Herbicidal effect [%] on AVEFA 10 DAT): 0%
pest or weed control at 80 g/ha ([3]; 80 g a.i./ha): 30%

CS(=O)(=O)c1ccc(C(=O)C2C(=O)CCCC2=O)c(Cl)c1COCC(F)(F)F [Tembotrione, tembotrione]
Herbicidal effect [%] on SORHA 10 DAT ([4]; 3 g a.i./ha): 80%
Herbicidal effect [%] on SORHA 21 DAT ([4]; 3 g a.i./ha): 20%
Herbicidal effect [%] on BIDPI 21 DAT ([5]; 3 g a.i./ha): 30%
pest or weed control at 3 g/ha ([1]; Eleusine indica, post-emergence, 240 h, 3 g a.i./ha, read-out: Herbicidal effect [%] on ELEIN 10 DAT): 60%
pest or weed control at 3 g/ha ([1]; Eleusine indica, post-emergence, 504 h, 3 g a.i./ha, read-out: Herbicidal effect [%] on ELEIN 21 DAT): 40%
Herbicidal effect [%] on CENCY 21 DAT ([6]; 3 g a.i./ha): 30%
Herbicidal effect [%] on PHBPU 21 DAT ([7]; 3 g a.i./ha): 30%
Herbicidal effect [%] on KCHSC 10 DAT ([2]; 3 g a.i./ha): 20%
pest or weed control at 3 g/ha ([2]; Bassia scoparia, post-emergence, 504 h, 3 g a.i./ha, read-out: Herbicidal effect [%] on KCHSC 21 DAT): 10%
pest or weed control at 3 g/ha ([8]; Lolium rigidum, 504 h, 3 g a.i./ha, 21 DAT, read-out: Herbicidal effect [%] on LOLRI 21 DAT): 20%
pest or weed control at 3 g/ha ([3]; 3 g a.i./ha): 40%
pest or weed control at 3 g/ha [11, 13]: 40%
pest or weed control at 3 g/ha [11, 14]: 20%

CSc1nnc(C(C)(C)C)c(=O)n1N [Metribuzin, metribuzin]
pest or weed control at 15 g/ha ([1]; Eleusine indica, post-emergence, 504 h, 15 g a.i./ha, read-out: Herbicidal effect [%] on ELEIN 21 DAT): 10%
Herbicidal effect [%] on PHBPU 10 DAT ([7]; 15 g a.i./ha): 0%
pest or weed control at 15 g/ha ([8]; Lolium rigidum, 504 h, 15 g a.i./ha, 21 DAT, read-out: Herbicidal effect [%] on LOLRI 21 DAT): 0%
pest or weed control at 15 g/ha ([3]; 15 g a.i./ha): 0%

CC(C)N(C)S(=O)(=O)NC(=O)c1cc(-n2c(=O)cc(C(F)(F)F)n(C)c2=O)c(F)cc1Cl [Saflufenacil, saflufenacil]
pest or weed control at 0.4 g/ha ([1]; Eleusine indica, post-emergence, 240 h, read-out: Herbicidal effect [%] on ELEIN 10 DAT): 30%
pest or weed control at 0.4 g/ha [1, 12]: 0%
Herbicidal effect [%] on CENCY 21 DAT ([6]; 0.4 g a.i./ha): 30%
Herbicidal effect [%] on PHBPU 21 DAT ([7]; 0.4 g a.i./ha): 80%
Herbicidal effect [%] on KCHSC 10 DAT ([2]; 0.4 g a.i./ha): 10%
pest or weed control at 0.4 g/ha ([2]; Bassia scoparia, post-emergence, 504 h, 0.4 g a.i./ha, read-out: Herbicidal effect [%] on KCHSC 21 DAT): 10%
Herbicidal effect [%] on LOLRI 10 DAT ([8]; 0.4 g a.i./ha, 10 DAT): 10%
pest or weed control at 0.4 g/ha ([8]; Lolium rigidum, 504 h, 0.4 g a.i./ha, 21 DAT, read-out: Herbicidal effect [%] on LOLRI 21 DAT): 0%
pest or weed control at 0.4 g/ha ([10]; Avena fatua, 240 h, 0.4 g a.i./ha, read-out: Herbicidal effect [%] on AVEFA 10 DAT): 10%
pest or weed control at 0.4 g/ha ([3]; 0.4 g a.i./ha): 40%
pest or weed control at 0.4 g/ha [11, 13]: 10%
pest or weed control at 0.4 g/ha [11, 14]: 0%

Cc1ccc2c(c1)[C@H](Nc1nc(N)nc(C(C)F)n1)[C@@H](C)C2 (stereo partly shown) [Indaziflam, indaziflam]
Herbicidal effect [%] on SORHA 21 DAT ([4]; 3 g a.i./ha): 10%
Herbicidal effect [%] on BIDPI 21 DAT ([5]; 3 g a.i./ha): 30%
Herbicidal effect [%] on ELEIN 21 DAT ([1]; 3 g a.i./ha): 10%
Herbicidal effect [%] on CENCY 10 DAT ([6]; 3 g a.i./ha): 20%
Herbicidal effect [%] on CENCY 21 DAT ([6]; 3 g a.i./ha): 10%
Herbicidal effect [%] on KCHSC 10 DAT ([2]; 3 g a.i./ha): 10%
Herbicidal effect [%] on KCHSC 21 DAT ([2]; 3 g a.i./ha): 20%
Herbicidal effect [%] on LOLRI 21 DAT ([8]; 3 g a.i./ha, 21 DAT): 0%
Herbicidal effect [%] on ECHCG 10 DAT ([9]; 3 g a.i./ha): 0%
Herbicidal effect [%] on AVEFA 10 DAT ([10]; 3 g a.i./ha): 0%
